Reference: ChEMBL document CHEMBL3272352, “Ergoline congeners as potential inhibitors of prolactin release. 2” (1976)

test system: Rattus norvegicus; test: Inhibition of prolactin secretion in rat assessed as serum prolactin level at 1 mg, ip after 1 hr by radioimmunoassay relative to control

SMILES	inhibition (INH)
CCN(CC)C(=O)CCN(C)CCc1cc(OC)c(C)cc1OC	10%
CN(C)C1CCc2c(ccc(O)c2O)C1 (stereo not drawn)	68%
Br.COc1ccc(OC)c2c1CCC(N(C)CCCC#N)C2 (stereo not drawn)	-4%
CN(CCCC#N)C1CCc2ccccc2C1 (stereo not drawn)	24%
Br.CN(C)C1CCc2c(O)ccc(O)c2C1 (stereo not drawn)	25%
Br.CNC1CCc2c(O)ccc(O)c2C1 (stereo not drawn)	-19%
CN1CCc2cccc3c2[C@H]1Cc1ccc(O)c(O)c1-3 [APOMORPHINE]	29%
COc1ccc(OC)c2c1CCC(N(C)C)C2.Cl (stereo not drawn)	-3%
Br.NC1CCc2c(O)ccc(O)c2C1 (stereo not drawn)	-9%
Br.CN(CCCC#N)CCc1c[nH]c2ccccc12	12%
COc1ccc(OC)c2c1CCC(N)C2 (stereo not drawn)	3%
CNC1CCc2c(OC)ccc(OC)c2C1 (stereo not drawn)	5%

test system: Rattus norvegicus; test: Inhibition of prolactin secretion in rat assessed as serum prolactin level at 10 ug, ip after 1 hr by radioimmunoassay relative to control; format: functional

SMILES	inhibition (INH)
CC(C)[C@H]1C(=O)N2CCC[C@H]2[C@]2(O)O[C@](NC(=O)[C@@H]3C=C4c5cccc6[nH]cc(c56)C[C@H]4N(C)C3)(C(C)C)C(=O)N12 [ERGOCORNINE]	60%
